Assay [1] concerns colorectal cancer xenografts with RSPO3 translocations. Also noted: method as in PMID 26257057. The following applies: cited from earlier work.
The subject of assay [2] is SNU-1411 cells. Briefly: In vitro glucose uptake. It counts as cell-based, human. The following applies: SNU-1411, Latrunculin A 500 nmol/L, 48 hours. The method, then:
(§1) SNU-1411, HPAF-II, and HCT116 cells were treated in vitro for 48 hours with RXC004 (100 nmol/L), Latrunculin A (Abcam #ab144290; 500 nmol/L), or DMSO prior to analysis using the Glucose Uptake Glo Assay Kit (Promega #J1341). The ATPlite assay was used to control for cell viability, confirming RXC004 has no effect on proliferation at this 48 hours timepoint.

Assay [3] deals with HCT116 cells. Briefly: In vitro glucose uptake. It counts as cell-based, human. The note with it: HCT116, Latrunculin A 500 nmol/L, 48 hours. The method, then: as §1
Assay [4] deals with HPAF-II cells. Briefly: In vitro glucose uptake. It counts as cell-based, human. The following applies: Latrunculin A 500 nmol/L, 48 hours. The method, then: as §1

Structures are written as SMILES.

On to `Cn1c(=O)c2c(ncn2CC(=O)Nc2ccc(-c3ccccc3)nn2)n(C)c1=O` [ETC-159], for which the “duration of tumor regrowth suppression after withdrawal of treatment” value in assay [1] was “up to 6 weeks”.
Take `C/C1=C/C(=O)O[C@@H]2C[C@@H](CC[C@H](C)/C=C\C=C\CC1)O[C@@](O)([C@@H]1CSC(=O)N1)C2` [Latrunculin A, reference compound]: the glucose uptake result in assay [2], in assay [3] and in assay [4] was “blocked glucose uptake” in each case.
